Assay results from patent publication US9376425B2, “Heterocyclic compounds as MDM2 inhibitors for the treatment of cancer” (AMGEN INC., priority 2011, dated 2016).

target: T1, human MDM2 (GST-hMDM2 1-188), interaction with biotinylated-p53 (1-83) (Homo sapiens, UniProt Q00987); assay: improved HTRF assay (HTRF2 assay), inhibition of HDM2-p53 interaction; type: binding; conditions: 0.2 nM GST-hMDM2, 0.5 nM biotinylated-p53, 100 mM KF
T1 construct: Amino acid residues 1-188 of human MDM2 were expressed; made in house; host or cells: Escherichia coli
Method in brief: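 Time-resolved fluorescence (HTRF) read after >4 h equilibration with SA-XLent/anti-GST cryptate/KF detection reagents. Reaction: compound plus GST-hMDM2 for 20 min at room temperature, then E. coli-expressed biotinylated p53 residues 1-83 for 60 min, 2% DMSO final. Inhibition expressed versus nutlin-3.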

T1 sequence (Q00987 1-188): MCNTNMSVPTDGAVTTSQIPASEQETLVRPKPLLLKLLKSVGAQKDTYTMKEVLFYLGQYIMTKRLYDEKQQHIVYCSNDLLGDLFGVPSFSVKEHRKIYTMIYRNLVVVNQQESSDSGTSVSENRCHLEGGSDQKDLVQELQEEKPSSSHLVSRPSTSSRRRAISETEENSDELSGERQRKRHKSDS

Question: For `O=C(O)C[C@H]1O[C@H](c2cccc(Cl)c2)[C@@H](c2ccc(Cl)cc2)N([C@H](CS(=O)(=O)N2CCc3cc(F)ccc32)C2CC2)C1=O` (single isomer, unassigned) [Example 299, 2-((2R,5R,6R)-6-(3-Chlorophenyl)-5-(4-chlorophenyl)-4-((S)-1-cyclopropyl-2-((5-fluoroindolin-1-yl)sulfonyl)ethyl)-3-oxomorpholin-2-yl)acetic acid or 2-((2S,5R,6R)-6-(3-chlorophenyl)-5-(4-chlorophenyl)-4-((S)-1-cyclopropyl-2-((5-fluoroindolin-1-yl)sulfonyl)ethyl)-3-oxomorpholin-2-yl)acetic acid], which IC50 is on record?
Answer: 11 nM

Question: With `CC[C@@H](CN(c1ccccc1F)S(=O)(=O)C1CC1)N1C(=O)[C@@H](CCC(=O)O)O[C@H](c2cccc(Cl)c2)[C@H]1c1ccc(Cl)cc1` (single isomer, unassigned) [Example 262, 3-((2R,5R,6R)-6-(3-chlorophenyl)-5-(4-chlorophenyl)-4-((S)-1-(N-(2-fluorophenyl)cyclopropanesulfonamido)butan-2-yl)-3-oxomorpholin-2-yl)propanoic acid or 3-((2S,5R,6R)-6-(3-chlorophenyl)-5-(4-chlorophenyl)-4-((S)-1-(N-(2-fluorophenyl)cyclopropanesulfonamido)butan-2-yl)-3-oxomorpholin-2-yl)propanoic acid] as the compound, how does the IC50 read?
Answer: 2 nM

Question: `CC(C)(C)S(=O)(=O)C[C@H](CC(F)(F)F)N1C(=O)[C@@](C)(CC(=O)O)O[C@H](c2cccc(Cl)c2)[C@H]1c1ccc(Cl)cc1` (single isomer, unassigned) [Example 341, 2-((2R,5R,6R)-4-((S)-1-(tert-Butylsulfonyl)-4,4,4-trifluorobutan-2-yl)-6-(3-chlorophenyl)-5-(4-chlorophenyl)-2-methyl-3-oxomorpholin-2-yl)acetic acid or 2-((2S,5R,6R)-4-((S)-1-(tert-butylsulfonyl)-4,4,4-trifluorobutan-2-yl)-6-(3-chlorophenyl)-5-(4-chlorophenyl)-2-methyl-3-oxomorpholin-2-yl)acetic acid] was tested. Which IC50 did it give?
Answer: < 1 nM

Question: `O=C1[C@@H](Cc2nnn[nH]2)O[C@H](c2cccc(Cl)c2)[C@@H](c2ccc(Cl)cc2)N1[C@H](CN(c1ccccc1F)S(=O)(=O)C1CC1)C1CC1` (single isomer, unassigned) [Example 399, N-((S)-2-((2R,5R,6R)-2-((1H-Tetrazol-5-yl)methyl)-6-(3-chlorophenyl)-5-(4-chlorophenyl)-3-oxomorpholino)-2-cyclopropylethyl)-N-(2-fluorophenyl)cyclopropanesulfonamide or N-((S)-2-((2S,5R,6R)-2-((1H-tetrazol-5-yl)methyl)-6-(3-chlorophenyl)-5-(4-chlorophenyl)-3-oxomorpholino)-2-cyclopropylethyl)-N-(2-fluorophenyl)cyclopropanesulfonamide] was tested. Which IC50 did it give?
Answer: < 1 nM

Question: `CC(C)(C)S(=O)(=O)C[C@H](C1CC1)N1C(=O)[C@@H](CCO)O[C@H](c2cccc(Cl)c2)[C@H]1c1ccc(Cl)cc1` (single isomer, unassigned) [Example 370, (2R,5R,6R)-4-((S)-2-(tert-Butylsulfonyl)-1-cyclopropylethyl)-6-(3-chlorophenyl)-5-(4-chlorophenyl)-2-(2-hydroxyethyl)morpholin-3-one or (2S,5R,6R)-4-((S)-2-(tert-butylsulfonyl)-1-cyclopropylethyl)-6-(3-chlorophenyl)-5-(4-chlorophenyl)-2-(2-hydroxyethyl)morpholin-3-one] was tested. Which IC50 did it give?
Answer: 28 nM

Question: With `CC(C)(C)S(=O)(=O)C[C@H](C1CC1)N1C(=O)[C@@H](Cc2cnn[nH]2)O[C@H](c2cccc(Cl)c2)[C@H]1c1ccc(Cl)cc1` (single isomer, unassigned) [Example 385, (2R,5R,6R)-2-((1H-1,2,3-Triazol-5-yl)methyl)-4-((S)-2-(tert-butylsulfonyl)-1-cyclopropylethyl)-6-(3-chlorophenyl)-5-(4-chlorophenyl)morpholin-3-one or (2S,5R,6R)-2-((1H-1,2,3-triazol-5-yl)methyl)-4-((S)-2-(tert-butylsulfonyl)-1-cyclopropylethyl)-6-(3-chlorophenyl)-5-(4-chlorophenyl)morpholin-3-one] as the compound, how does the IC50 read?
Answer: 4 nM

Question: `Cc1nnc(C[C@H]2O[C@H](c3cccc(Cl)c3)[C@@H](c3ccc(Cl)cc3)N([C@H](CN(c3ccccc3F)S(=O)(=O)C3CC3)C3CC3)C2=O)o1` (single isomer, unassigned) [Example 403, N-((S)-2-((2R,3R,6R)-2-(3-Chlorophenyl)-3-(4-chlorophenyl)-6-((5-methyl-1,3,4-oxadiazol-2-yl)methyl)-5-oxomorpholino)-2-cyclopropylethyl)-N-(2-fluorophenyl)cyclopropanesulfonamide or N-((S)-2-((2S,3R,6R)-2-(3-chlorophenyl)-3-(4-chlorophenyl)-6-((5-methyl-1,3,4-oxadiazol-2-yl)methyl)-5-oxomorpholino)-2-cyclopropylethyl)-N-(2-fluorophenyl)cyclopropanesulfonamide] was tested. Which IC50 did it give?
Answer: 2 nM

Question: How did the IC50 turn out when `CN(C(C)(C)C)S(=O)(=O)C[C@H](C1CC1)N1C(=O)[C@@H](CC(=O)O)O[C@H](c2cccc(Cl)c2)[C@H]1c1ccc(Cl)cc1` (single isomer, unassigned) [Example 301, 2-((2R,5R,6R)-4-((S)-2-(N-(tert-Butyl)-N-methylsulfamoyl)-1-cyclopropylethyl)-6-(3-chlorophenyl)-5-(4-chlorophenyl)-3-oxomorpholin-2-yl)acetic acid or 2-((2S,5R,6R)-4-((S)-2-(N-(tert-butyl)-N-methylsulfamoyl)-1-cyclopropylethyl)-6-(3-chlorophenyl)-5-(4-chlorophenyl)-3-oxomorpholin-2-yl)acetic acid] was run?
Answer: < 1 nM

Question: Which IC50 does the source give for `CC[C@@H](CS(=O)(=O)C(C)(C)C)N1C(=O)[C@H](CC(N)=O)O[C@H](c2cccc(Cl)c2)[C@H]1c1ccc(Cl)cc1` (single isomer, unassigned) [Example 260, 2-((2S,5R,6R)-4-((S)-1-(tert-butylsulfonyl)butan-2-yl)-6-(3-chlorophenyl)-5-(4-chlorophenyl)-3-oxomorpholin-2-yl)acetamide or 2-((2R,5R,6R)-4-((S)-1-(tert-butylsulfonyl)butan-2-yl)-6-(3-chlorophenyl)-5-(4-chlorophenyl)-3-oxomorpholin-2-yl)] here?
Answer: 8 nM

Question: “2-((2R,5R,6R)-6-(3-Chlorophenyl)-5-(4-chlorophenyl)-4-((3S,5S)-5-hydroxyhexan-3-yl)-3-oxomorpholin-2-yl)acetic acid or 2-((2R,5R,6R)-6-(3-Chlorophenyl)-5-(4-chlorophenyl)-4-((3S,5R)-5-hydroxyhexan-3-yl)-3-oxomorpholin-2-yl)acetic acid [Example 126]” was tested. Which IC50 did it give?
Answer: 61 nM

Question: With `CC[C@@H](CN(c1ccccc1F)S(=O)(=O)C1CC1)N1C(=O)[C@H](CC(=O)NS(=O)(=O)C(C)C)O[C@H](c2cccc(Cl)c2)[C@H]1c1ccc(Cl)cc1` (single isomer, unassigned) [Example 258, 2-((2S,5R,6R)-6-(3-chlorophenyl)-5-(4-chlorophenyl)-4-((S)-1-(N-(2-fluorophenyl)cyclopropanesulfonamido)butan-2-yl)-3-oxomorpholin-2-yl)-N-(isopropylsulfonyl)acetamide or 2-((2R,5R,6R)-6-(3-chlorophenyl)-5-(4-chlorophenyl)-4-((5)-1-(N-(2-fluorophenyl)cyclopropanesulfonamido)butan-2-yl)-3-oxomorpholin-2-yl)-N-(isopropylsulfonyl)acetamide] as the compound, how does the IC50 read?
Answer: 1 nM

Question: `NS(=O)(=O)C[C@H]1O[C@H](c2cccc(Cl)c2)[C@@H](c2ccc(Cl)cc2)N([C@H](CN(c2ccccc2F)S(=O)(=O)C2CC2)C2CC2)C1=O` (single isomer, unassigned) [Example 409, N-((S)-2-((2R,3R,6S)-2-(3-Chlorophenyl)-3-(4-chlorophenyl)-5-oxo-6-(sulfamoylmethyl)morpholino)-2-cyclopropylethyl)-N-(2-fluorophenyl)cyclopropanesulfonamide or N-((S)-2-((2S,3R,6S)-2-(3-chlorophenyl)-3-(4-chlorophenyl)-5-oxo-6-(sulfamoylmethyl)morpholino)-2-cyclopropylethyl)-N-(2-fluorophenyl)cyclopropanesulfonamide] was tested. Which IC50 did it give?
Answer: < 1 nM

Question: With `CC[C@@H](CN(c1ccccc1F)S(=O)(=O)C1CC1)N1C(=O)[C@@H]([C@@H](C)C(=O)O)O[C@H](c2cccc(Cl)c2)[C@H]1c1ccc(Cl)cc1` (single isomer, unassigned) [Example 254] as the compound, how does the IC50 read?
Answer: 1 nM

Question: Which IC50 does the source give for `O=C(O)C[C@H]1O[C@H](c2cccc(Cl)c2)[C@@H](c2ccc(Cl)cc2)N([C@H](CN(c2cc(F)ccc2F)S(=O)(=O)C2CC2)C2CC2)C1=O` (single isomer, unassigned) [Example 276, 2-((2R,5R,6R)-6-(3-Chlorophenyl)-5-(4-chlorophenyl)-4-((S)-1-cyclopropyl-2-(N-(2,5-difluorophenyl)cyclopropanesulfonamido)ethyl)-3-oxomorpholin-2-yl)acetic acid or 2-((2S,5R,6R)-6-(3-chlorophenyl)-5-(4-chlorophenyl)-4-((S)-1-cyclopropyl-2-(N-(2,5-difluorophenyl)cyclopropanesulfonamido)ethyl)-3-oxomorpholin-2-yl)acetic acid] here?
Answer: < 1 nM

Question: `CC[C@@H](CS(=O)(=O)C(C)(C)C)N1C(=O)[C@@H](CNC(C)=O)O[C@H](c2cccc(Cl)c2)[C@H]1c1ccc(Cl)cc1` (single isomer, unassigned) [Example 380, N-(((2R,5R,6R)-4-((S)-1-(tert-Butylsulfonyl)butan-2-yl)-6-(3-chlorophenyl)-5-(4-chlorophenyl)-3-oxomorpholin-2-yl)methyl)acetamide or N-(((2S,5R,6R)-4-((S)-1-(tert-butylsulfonyl)butan-2-yl)-6-(3-chlorophenyl)-5-(4-chlorophenyl)-3-oxomorpholin-2-yl)methyl)acetamide] was tested. Which IC50 did it give?
Answer: 48 nM
